Experiments:
[1] = target: Cyclin-dependent kinase 11A (Homo sapiens) (UniProt Q9UQ88); settings: Compound concentration 1000.0 nM
[2] = target: 5'-AMP-activated protein kinase catalytic subunit alpha-1 (Homo sapiens) (UniProt Q13131); settings: Compound concentration 1000.0 nM
[3] = target: Serine/threonine-protein kinase tousled-like 2 (Homo sapiens) (UniProt Q86UE8); settings: Compound concentration 1000.0 nM
[4] = target: BDNF/NT-3 growth factors receptor (Homo sapiens) (UniProt Q16620); settings: Compound concentration 1000.0 nM
[5] = target: Serine/threonine-protein kinase PLK2 (Homo sapiens) (UniProt Q9NYY3); settings: Compound concentration 1000.0 nM
[6] = target: Macrophage-stimulating protein receptor (Homo sapiens) (UniProt Q04912); settings: Compound concentration 1000.0 nM
[7] = target: Serine/threonine-protein kinase Nek5 (Homo sapiens) (UniProt Q6P3R8); settings: Compound concentration 1000.0 nM
[8] = target: Serine/threonine-protein kinase Sgk3 (Homo sapiens) (UniProt Q96BR1); settings: Compound concentration 1000.0 nM
[9] = target: Serine/threonine-protein kinase Nek10 (Homo sapiens) (UniProt Q6ZWH5); settings: Compound concentration 1000.0 nM
Serine/threonine-protein kinase Nek10 (Homo sapiens), sequence (Q6ZWH5 whole entry, canonical isoform): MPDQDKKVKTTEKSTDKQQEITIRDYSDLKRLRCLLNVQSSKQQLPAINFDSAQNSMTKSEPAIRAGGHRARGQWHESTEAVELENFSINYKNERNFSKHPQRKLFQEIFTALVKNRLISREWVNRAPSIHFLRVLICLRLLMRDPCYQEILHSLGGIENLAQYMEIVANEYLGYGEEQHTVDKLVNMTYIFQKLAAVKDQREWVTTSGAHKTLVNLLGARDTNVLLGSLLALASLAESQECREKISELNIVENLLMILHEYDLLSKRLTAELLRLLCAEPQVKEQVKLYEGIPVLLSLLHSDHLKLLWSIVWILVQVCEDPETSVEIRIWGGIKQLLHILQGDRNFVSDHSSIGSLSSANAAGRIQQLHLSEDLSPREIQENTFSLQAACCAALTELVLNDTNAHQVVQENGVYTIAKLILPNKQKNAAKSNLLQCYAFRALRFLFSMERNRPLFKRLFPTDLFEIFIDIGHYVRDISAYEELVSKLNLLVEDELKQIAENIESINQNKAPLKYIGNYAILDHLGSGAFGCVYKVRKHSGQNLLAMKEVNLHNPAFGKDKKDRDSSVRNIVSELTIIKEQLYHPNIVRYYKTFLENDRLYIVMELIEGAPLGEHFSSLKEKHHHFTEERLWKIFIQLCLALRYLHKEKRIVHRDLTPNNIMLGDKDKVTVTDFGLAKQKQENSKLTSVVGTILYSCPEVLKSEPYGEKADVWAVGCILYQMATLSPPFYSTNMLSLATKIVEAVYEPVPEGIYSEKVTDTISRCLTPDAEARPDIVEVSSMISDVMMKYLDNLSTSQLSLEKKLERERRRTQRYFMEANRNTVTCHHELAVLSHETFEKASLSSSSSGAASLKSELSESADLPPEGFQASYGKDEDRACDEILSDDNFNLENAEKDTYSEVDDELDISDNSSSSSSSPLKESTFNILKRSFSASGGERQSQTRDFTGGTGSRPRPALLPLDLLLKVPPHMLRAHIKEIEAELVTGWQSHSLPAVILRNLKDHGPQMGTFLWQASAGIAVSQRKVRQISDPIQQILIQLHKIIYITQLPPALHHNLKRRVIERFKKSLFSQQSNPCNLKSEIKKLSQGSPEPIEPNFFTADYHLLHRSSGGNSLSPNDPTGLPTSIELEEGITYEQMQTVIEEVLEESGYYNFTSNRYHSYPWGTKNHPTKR

[10] = target: Phosphorylase b kinase regulatory subunit alpha, liver isoform (Homo sapiens) (UniProt P46019); settings: Compound concentration 1000.0 nM
[11] = target: Peripheral plasma membrane protein CASK (Homo sapiens) (UniProt O14936); settings: Compound concentration 1000.0 nM
[12] = target: Dual specificity mitogen-activated protein kinase kinase 6 (Homo sapiens) (UniProt P52564); settings: Compound concentration 1000.0 nM
[13] = target: NT-3 growth factor receptor (Homo sapiens) (UniProt Q16288); settings: Compound concentration 1000.0 nM
[14] = target: Misshapen-like kinase 1 (Homo sapiens) (UniProt Q8N4C8); settings: Compound concentration 1000.0 nM
[15] = target: Serine/threonine-protein kinase ULK1 (Homo sapiens) (UniProt O75385); settings: Compound concentration 1000.0 nM
[16] = target: Mitogen-activated protein kinase kinase kinase 20 (Homo sapiens) (UniProt Q9NYL2); settings: Compound concentration 1000.0 nM
Mitogen-activated protein kinase kinase kinase 20 (Homo sapiens), sequence (Q9NYL2 2-800 limits assumed): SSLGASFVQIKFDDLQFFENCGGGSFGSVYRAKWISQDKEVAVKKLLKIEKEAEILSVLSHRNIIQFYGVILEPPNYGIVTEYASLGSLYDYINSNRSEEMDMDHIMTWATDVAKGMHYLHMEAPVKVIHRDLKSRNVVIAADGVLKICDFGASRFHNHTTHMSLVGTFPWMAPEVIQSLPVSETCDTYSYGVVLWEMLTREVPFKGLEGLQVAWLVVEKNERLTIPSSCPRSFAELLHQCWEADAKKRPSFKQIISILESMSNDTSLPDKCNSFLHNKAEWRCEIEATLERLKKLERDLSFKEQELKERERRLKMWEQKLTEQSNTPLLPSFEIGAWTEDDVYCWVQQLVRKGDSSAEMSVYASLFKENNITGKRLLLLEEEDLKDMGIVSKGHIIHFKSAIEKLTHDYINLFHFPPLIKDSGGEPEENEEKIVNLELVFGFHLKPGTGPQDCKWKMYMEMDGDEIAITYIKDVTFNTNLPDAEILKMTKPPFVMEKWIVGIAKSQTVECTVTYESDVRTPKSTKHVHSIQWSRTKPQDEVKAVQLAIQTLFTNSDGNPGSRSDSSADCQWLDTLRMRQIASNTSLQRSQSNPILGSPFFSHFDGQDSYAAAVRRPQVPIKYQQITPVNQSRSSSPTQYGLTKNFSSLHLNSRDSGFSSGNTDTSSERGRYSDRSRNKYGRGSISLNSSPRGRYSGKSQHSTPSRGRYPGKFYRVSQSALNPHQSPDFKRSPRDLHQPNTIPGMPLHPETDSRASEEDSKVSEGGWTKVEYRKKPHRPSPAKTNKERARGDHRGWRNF

[17] = test system: Epidermal growth factor receptor (Homo sapiens), P00533 [L861Q]; settings: Compound concentration 1000.0 nM
[18] = target: Serine/threonine-protein kinase MARK1 (Homo sapiens) (UniProt Q9P0L2); settings: Compound concentration 1000.0 nM
[19] = target: T1, Alpha-1A adrenergic receptor (Homo sapiens) (UniProt P35348); settings: Compound concentration 10.0 uM
T1 sequence (whole entry): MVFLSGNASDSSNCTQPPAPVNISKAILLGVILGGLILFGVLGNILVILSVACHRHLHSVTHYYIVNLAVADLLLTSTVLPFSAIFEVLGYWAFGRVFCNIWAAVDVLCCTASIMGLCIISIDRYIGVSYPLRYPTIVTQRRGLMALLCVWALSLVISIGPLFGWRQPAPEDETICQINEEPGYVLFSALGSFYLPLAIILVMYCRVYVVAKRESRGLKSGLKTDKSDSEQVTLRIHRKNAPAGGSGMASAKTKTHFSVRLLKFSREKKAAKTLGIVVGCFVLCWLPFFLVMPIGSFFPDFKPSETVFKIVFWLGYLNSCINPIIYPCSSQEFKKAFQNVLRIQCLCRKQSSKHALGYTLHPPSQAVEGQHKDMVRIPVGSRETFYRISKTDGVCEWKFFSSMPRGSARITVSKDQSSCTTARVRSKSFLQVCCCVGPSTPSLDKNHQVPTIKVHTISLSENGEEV

[20] = target: Phosphatidylinositol 4-phosphate 5-kinase type-1 gamma (Homo sapiens) (UniProt O60331); settings: Compound concentration 1000.0 nM
[21] = target: Phosphatidylinositol 4,5-bisphosphate 3-kinase catalytic subunit gamma isoform (Homo sapiens) (UniProt P48736); settings: Compound concentration 1000.0 nM
[22] = target: Mitogen-activated protein kinase 8 (Homo sapiens) (UniProt P45983); settings: Compound concentration 1000.0 nM
[23] = target: Non-receptor tyrosine-protein kinase TYK2 (Homo sapiens) (UniProt P29597); settings: Compound concentration 1000.0 nM
[24] = target: Serine/threonine-protein kinase MARK2 (Homo sapiens) (UniProt Q7KZI7); settings: Compound concentration 1000.0 nM
Serine/threonine-protein kinase MARK2 (Homo sapiens), sequence (Q7KZI7 whole entry): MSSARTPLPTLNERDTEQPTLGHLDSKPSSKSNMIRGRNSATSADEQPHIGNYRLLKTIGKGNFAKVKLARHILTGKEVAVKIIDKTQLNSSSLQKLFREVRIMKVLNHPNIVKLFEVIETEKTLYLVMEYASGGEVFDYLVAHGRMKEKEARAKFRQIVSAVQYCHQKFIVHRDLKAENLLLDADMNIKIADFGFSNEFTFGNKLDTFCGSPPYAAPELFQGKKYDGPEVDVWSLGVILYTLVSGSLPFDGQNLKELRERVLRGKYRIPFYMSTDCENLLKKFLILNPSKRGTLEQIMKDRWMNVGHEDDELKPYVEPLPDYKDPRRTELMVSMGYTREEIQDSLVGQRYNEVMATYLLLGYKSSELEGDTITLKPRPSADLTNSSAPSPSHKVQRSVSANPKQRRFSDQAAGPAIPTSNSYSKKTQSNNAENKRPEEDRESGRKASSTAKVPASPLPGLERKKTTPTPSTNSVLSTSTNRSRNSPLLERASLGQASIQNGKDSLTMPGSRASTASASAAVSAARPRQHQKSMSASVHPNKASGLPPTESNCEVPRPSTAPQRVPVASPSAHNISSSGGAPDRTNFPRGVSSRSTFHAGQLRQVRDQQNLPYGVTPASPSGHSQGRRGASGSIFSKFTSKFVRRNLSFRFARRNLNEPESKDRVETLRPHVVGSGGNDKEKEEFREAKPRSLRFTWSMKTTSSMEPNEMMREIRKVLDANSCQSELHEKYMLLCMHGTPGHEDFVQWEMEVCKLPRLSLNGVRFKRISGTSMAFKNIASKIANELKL

[25] = target: 5-hydroxytryptamine receptor 5A (Homo sapiens) (UniProt P47898); settings: Compound concentration 10.0 uM
[26] = target: LIM domain kinase 2 (Homo sapiens) (UniProt P53671); settings: Compound concentration 1000.0 nM
LIM domain kinase 2 (Homo sapiens), sequence (P53671 whole entry, looked up, the tested form may be a part): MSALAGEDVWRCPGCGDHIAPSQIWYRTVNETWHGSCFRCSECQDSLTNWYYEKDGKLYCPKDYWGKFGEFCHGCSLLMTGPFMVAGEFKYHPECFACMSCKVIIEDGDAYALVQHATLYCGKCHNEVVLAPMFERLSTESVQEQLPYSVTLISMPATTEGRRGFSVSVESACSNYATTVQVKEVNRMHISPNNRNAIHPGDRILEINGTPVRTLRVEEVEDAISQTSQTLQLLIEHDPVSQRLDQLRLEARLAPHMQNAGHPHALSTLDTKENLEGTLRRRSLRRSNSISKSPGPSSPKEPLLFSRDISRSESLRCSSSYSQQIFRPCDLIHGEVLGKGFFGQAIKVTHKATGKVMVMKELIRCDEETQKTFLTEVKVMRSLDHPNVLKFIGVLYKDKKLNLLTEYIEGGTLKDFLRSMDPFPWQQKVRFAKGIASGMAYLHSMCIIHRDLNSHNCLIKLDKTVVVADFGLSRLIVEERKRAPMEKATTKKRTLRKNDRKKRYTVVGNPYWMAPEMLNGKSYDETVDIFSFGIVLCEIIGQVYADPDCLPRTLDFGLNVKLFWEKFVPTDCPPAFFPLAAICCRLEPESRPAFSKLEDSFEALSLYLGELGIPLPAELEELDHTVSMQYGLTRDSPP

[27] = target: Dual specificity tyrosine-phosphorylation-regulated kinase 2 (Homo sapiens) (UniProt Q92630); settings: Compound concentration 1000.0 nM
[28] = target: Ribosomal protein S6 kinase alpha-4 (Homo sapiens) (UniProt O75676); settings: Compound concentration 1000.0 nM
[29] = target: Serine/threonine-protein kinase 38-like (Homo sapiens) (UniProt Q9Y2H1); settings: Compound concentration 1000.0 nM
Serine/threonine-protein kinase 38-like (Homo sapiens), sequence (Q9Y2H1 2-464 limits assumed): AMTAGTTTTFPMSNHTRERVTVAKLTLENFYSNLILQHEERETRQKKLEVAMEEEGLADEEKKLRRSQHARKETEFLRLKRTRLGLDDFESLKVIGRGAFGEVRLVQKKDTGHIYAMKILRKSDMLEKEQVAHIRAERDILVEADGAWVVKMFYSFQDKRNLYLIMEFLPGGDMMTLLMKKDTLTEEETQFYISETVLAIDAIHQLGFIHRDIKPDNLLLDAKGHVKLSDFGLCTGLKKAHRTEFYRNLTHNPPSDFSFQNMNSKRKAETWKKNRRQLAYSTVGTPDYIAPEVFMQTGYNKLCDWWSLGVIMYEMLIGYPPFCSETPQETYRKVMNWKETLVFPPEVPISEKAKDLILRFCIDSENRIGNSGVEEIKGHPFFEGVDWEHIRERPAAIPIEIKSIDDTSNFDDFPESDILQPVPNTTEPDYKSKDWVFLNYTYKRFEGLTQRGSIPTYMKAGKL

[30] = target: Muscarinic acetylcholine receptor M5 (Homo sapiens) (UniProt P08912); settings: Compound concentration 10.0 uM
[31] = target: Sigma intracellular receptor 2 (Homo sapiens, UniProt Q5BJF2); assay: GPCRScan assay: inhibition of Sigma 2; parameters: radioligand conc. used [nm] 5.0, parental cells HEKT
Sigma intracellular receptor 2, sequence (Q5BJF2 whole entry): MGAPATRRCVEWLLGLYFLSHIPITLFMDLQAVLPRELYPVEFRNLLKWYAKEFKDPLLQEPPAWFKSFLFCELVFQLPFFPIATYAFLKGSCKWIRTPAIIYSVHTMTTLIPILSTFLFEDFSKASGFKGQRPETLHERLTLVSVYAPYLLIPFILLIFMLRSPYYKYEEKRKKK

[32] = target: Mitogen-activated protein kinase 1 (Homo sapiens) (UniProt P28482); settings: Compound concentration 1000.0 nM
[33] = test system: Hepatocyte growth factor receptor (Homo sapiens), P08581 [M1250T]; settings: Compound concentration 1000.0 nM
[34] = target: AP2-associated protein kinase 1 (Homo sapiens) (UniProt Q2M2I8); settings: Compound concentration 1000.0 nM
[35] = target: Alpha-1B adrenergic receptor (Homo sapiens) (UniProt P35368); settings: Compound concentration 10.0 uM
[36] = target: Mitogen-activated protein kinase 7 (Homo sapiens) (UniProt Q13164); settings: Compound concentration 1000.0 nM
Mitogen-activated protein kinase 7 (Homo sapiens), sequence (Q13164 2-816 limits assumed): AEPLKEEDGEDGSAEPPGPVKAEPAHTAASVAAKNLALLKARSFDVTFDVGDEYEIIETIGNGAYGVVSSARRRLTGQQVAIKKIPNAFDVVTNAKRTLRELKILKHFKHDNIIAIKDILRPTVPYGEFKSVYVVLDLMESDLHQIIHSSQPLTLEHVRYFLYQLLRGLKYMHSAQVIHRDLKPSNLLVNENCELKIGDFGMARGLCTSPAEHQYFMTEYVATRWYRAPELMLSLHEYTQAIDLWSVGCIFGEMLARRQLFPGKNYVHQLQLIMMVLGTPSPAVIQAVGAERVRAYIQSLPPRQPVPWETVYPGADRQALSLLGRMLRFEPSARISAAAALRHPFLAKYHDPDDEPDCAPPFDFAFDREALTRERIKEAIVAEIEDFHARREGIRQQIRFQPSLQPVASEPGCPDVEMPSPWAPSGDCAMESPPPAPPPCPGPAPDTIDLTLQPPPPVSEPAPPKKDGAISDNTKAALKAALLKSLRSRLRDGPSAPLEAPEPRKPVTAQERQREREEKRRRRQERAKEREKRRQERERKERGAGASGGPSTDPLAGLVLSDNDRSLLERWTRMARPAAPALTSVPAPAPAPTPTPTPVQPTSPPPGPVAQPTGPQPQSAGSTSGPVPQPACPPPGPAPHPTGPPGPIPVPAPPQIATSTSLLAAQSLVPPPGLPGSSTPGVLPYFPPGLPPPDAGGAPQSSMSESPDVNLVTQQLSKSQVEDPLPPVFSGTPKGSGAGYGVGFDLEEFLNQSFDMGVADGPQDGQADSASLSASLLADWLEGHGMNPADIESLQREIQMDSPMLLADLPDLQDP

[37] = test system: Phosphatidylinositol 4,5-bisphosphate 3-kinase catalytic subunit alpha isoform (Homo sapiens), P42336 [H1047L]; settings: Compound concentration 1000.0 nM
[38] = target: Rho-associated protein kinase 2 (Homo sapiens) (UniProt O75116); settings: Compound concentration 1000.0 nM

Row | SMILES | residual activity [1] [%] | residual activity [2] [%] | residual activity [3] [%] | residual activity [4] [%] | residual activity [5] [%] | residual activity [6] [%] | residual activity [7] [%] | residual activity [8] [%] | residual activity [9] [%] | residual activity [10] [%] | residual activity [11] [%] | residual activity [12] [%] | residual activity [13] [%] | residual activity [14] [%] | residual activity [15] [%] | residual activity [16] [%] | residual activity [17] [%] | residual activity [18] [%] | inhibition [19] [%] | residual activity [20] [%] | further results
1 | NS(=O)(=O)c1cc(NC(=O)Cc2ccccc2)ccc1Oc1cccc(Cl)c1 [BAY-1797] | 95 | 71 | 100 | 66 | 73 | 97 | 77 | 83 | 89 | 100 | 86 | 99 | 87 | 90 | 88 | 100 | 64 | 100 | 5.04 | 100 | residual activity [21]: 77%; residual activity [22]: 69%; residual activity [23]: 67%; residual activity [24]: 59%; inhibition [25]: 1.47%; residual activity [26]: 88%; residual activity [27]: 100%; residual activity [28]: 90%; residual activity [29]: 100%; inhibition [30]: 16.7%; Ki ([31]; read-out: Ki): 4.34 µM; Ki ([31]; read-out: pKi (converted)): 4.17 µM; residual activity [32]: 71%; residual activity [33]: 99%; residual activity [34]: 88%; inhibition [35]: -0.38%; residual activity [36]: 83%; residual activity [37]: 96%; residual activity [38]: 98%
2 | NS(=O)(=O)c1cc(NC(=O)C2(c3ccccc3Cl)CC2)ccc1Oc1cccc(Cl)c1 [BAY-207] | 73 | 80 | 100 | 100 | 84 | 99 | 89 | 90 | 89 | 100 | 89 | 96 | 88 | 86 | 89 | 99 | 76 | 83 | 15.1 | 48 | residual activity [21]: 100%; residual activity [22]: 100%; residual activity [23]: 80%; residual activity [24]: 100%; inhibition [25]: 5.57%; residual activity [26]: 82%; residual activity [27]: 81%; residual activity [28]: 89%; residual activity [29]: 81%; inhibition [30]: 14.7%; Ki ([31]; read-out: Ki): 1.94 µM; residual activity [32]: 75%; residual activity [33]: 68%; residual activity [34]: 100%; inhibition [35]: -8.97%; residual activity [36]: 92%; residual activity [37]: 98%; residual activity [38]: 100%

From ChEMBL document CHEMBL4507265 (2021)
